For 87 molecules, AC50 results are on record in PubChem BioAssay AID463199 (Broad Institute, 2010).

This test relates to S. cerevisiae Burl-1 ts mutant growth, BacTiter-Glo, 38.5C 24 h. The test is described as follows: growth induction of Burl-1 ts yeast mutant, dose response, counter-screen for SUMOylation pathway inhibitor project, whole organism, S. cerevisiae, luminescence (AID 463199). In general terms: The purpose of a counterscreen is to sort out artefacts and off-target activity.

Each structure is given as a SMILES string. Calls of active or inactive are those of the source.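 Rule for the calls: active = AC50, the dose giving half-maximal effect, exceeds a fixed cutoff for a compound that rescues yeast growth under heat; inactive = the rest, inconclusive results apart.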 Bounds are passed on as bounds.

`CCNC(=O)COc1ccc(S(=O)(=O)Nc2ccccc2)cc1`: the AC50 is > 21 µM (inactive).
For the molecule `CC(=O)CSc1ncnc2sc3c(c12)CCCC3`, the AC50 is > 42 µM (inactive).
In the case of `C[C@@]12C(=O)Nc3ccc(Br)cc3C(=O)N1[C@H]1c3ccccc3OC[C@@H]1[C@@H]2c1ccccc1`, the AC50 was > 42 µM (inactive).
As for `COc1cc(NC(=O)c2ccccc2F)c(OC)cc1NC(=O)CN1CCCCC1`, the AC50 is > 42 µM (inactive).
To `CCOc1ccc(-c2nnc(SCC(=O)N3CCCC3)o2)cc1` belongs > 42 µM (inactive); to `CCOc1ccccc1C(=O)N(Cc1cccs1)C1CCS(=O)(=O)C1` (configuration not stated), > 42 µM (inactive).
To `CCNC(=O)C1CC(=O)N(Cc2ccc3c(c2)OCO3)C(=Nc2ccc(F)cc2)S1` (configuration not stated) belongs > 42 µM (inactive).
Next, `COc1ccc(S(=O)(=O)N2CCN(c3ccc(F)cc3)CC2)cc1C(=O)N1CCOCC1`: > 42 µM (inactive); `CCCCNC(=O)N1CCC(CCC(=O)N(C)Cc2ccccc2)CC1`: > 42 µM (inactive).
Turning to `COCCNC(=O)NC(=O)CSc1nc(C)c(C)c(C)n1`, the AC50 is > 42 µM (inactive).
For the molecule `N#C/C(=C\Nc1ccc2c(c1)OCCO2)c1nc2ccccc2[nH]1`, the AC50 was > 42 µM (inactive).
Next, `CCOc1ccc(-n2cc(C(=O)NCCOC)c3cc(OC)c(OC)cc3c2=O)cc1`: > 42 µM (inactive); `Cc1ccc(C(=O)Nc2ccc3c(c2)OCCO3)c(Cl)c1`: > 42 µM (inactive); `CCOC(=O)N1CCC(NS(=O)(=O)c2ccc(C)c(Cl)c2)CC1`: > 42 µM (inactive).
Turning to `COc1ccc2c(c1)OC[C@H]1[C@H]2N2C(=O)c3cc(OC)c(OC)cc3NC(=O)[C@@]2(C)[C@H]1c1ccccc1`, the AC50 was > 42 µM (inactive).
Next, `CCOc1ccc(-c2nc3n(c(=O)c2C#N)CCS3)cc1`: 40.7 µM; `CC1CC(C)(C)N(C(=O)CN2C(=O)CCC2=O)c2ccccc21` (configuration not stated): > 42 µM (inactive).
Next, `O=S(=O)(Nc1ccc(N2CCOCC2)cc1)c1cccs1`: > 42 µM (inactive); `Cc1cc(C(F)(F)F)nc(SCC(=O)Nc2cc(C)on2)n1`: > 42 µM (inactive); `O=C(NCCc1cnccn1)C1CCC(=O)N(Cc2ccc(Cl)cc2)C1` (configuration not stated): > 42 µM (inactive).
`Cc1nn(CCOc2ccccc2)c(=O)n1-c1ccccc1F`: the AC50 is > 42 µM (inactive).
Next, `CCC(=O)N1c2ccc(S(=O)(=O)N3CCN(c4ccc([N+](=O)[O-])cc4)CC3)cc2CC1C` (configuration not stated): > 42 µM (inactive); `O=C(COC(=O)c1c(F)cccc1F)c1ccc[nH]1`: > 42 µM (inactive).
`O=C(COC(=O)/C=C/c1ccco1)Nc1ncc(C(F)(F)F)cc1Cl`: the AC50 is > 42 µM (inactive).
`CC1CCCCC1N=CC1=C(O)CC(C)(C)CC1=O` (configuration not stated): the AC50 is > 42 µM (inactive).
To `C=C1C(O)[C@@H]2O[C@]3(CC[C@H](/C=C/C(C)[C@@H]4CC(C)=CC5(O[C@H](C[C@@](C)(O)C(=O)O)CCC5O)O4)O3)CC[C@H]2O[C@@H]1C(O)CC(C)[C@H]1OC2(CCCCO2)CCC1C` (some centres not stated) belongs 4.06 µM; to `CCS(=O)(=O)c1nc(S(=O)(=O)c2ccc(Cl)cc2)c(N2CCc3ccccc3C2)s1`, > 42 µM (inactive); to `C/C(=N\NC(=O)c1cccc(N/N=C(\C)c2ccc([N+](=O)[O-])cc2)c1)c1ccc([N+](=O)[O-])cc1`, > 42 µM (inactive).
Next, `C(=N\N1CCN(C2c3ccccc3-c3ccccc32)CC1)/c1ccncc1`: > 42 µM (inactive).
To `CCN1CCCC1CN(Cc1cc2ccc(C)cc2[nH]c1=O)C(=S)Nc1ccc(OC)cc1OC` (configuration not stated) belongs > 42 µM (inactive); to `Nc1cc(Cl)ccc1N1CCOCC1`, > 42 µM (inactive); to `CCn1c(SCc2nc3ccccc3[nH]2)nnc1-c1cccnc1`, > 42 µM (inactive).
`CC(C)NC(=O)NC(=O)COC(=O)CCCSc1nc2ccccc2s1`: the AC50 is > 42 µM (inactive).
Next, `COc1ccc(NC(=O)CC(C)C)c(OC)c1`: > 42 µM (inactive).
To `Cc1cnc(NC(=O)CSc2nc3ccccc3s2)s1` belongs > 42 µM (inactive); to `CN(C)C(/C=C/Nc1cccc(Br)c1)=C(C#N)C#N`, > 42 µM (inactive); to `Fc1cccc(NC(=S)N2CCn3cccc3C2c2cccnc2)c1` (configuration not stated), > 42 µM (inactive).
`CCN(CC)CCCN1C(=O)C(=O)/C(=C(/O)c2ccccc2)C1c1cc(OC)ccc1OC` (configuration not stated): the AC50 is > 42 µM (inactive).
To `CN(C)CCOC(=O)CCc1ccccc1` belongs > 42 µM (inactive); to `COc1ccccc1N(CC(=O)NCC1CCCO1)C(=O)CCC(=O)Nc1cc(C)on1` (configuration not stated), > 42 µM (inactive).
To `CC(=O)N1c2ccc([N+](=O)[O-])cc2NC(=O)CC1C` (configuration not stated) belongs > 42 µM (inactive); to `CCCNCc1cc(OCC)c(OCC(N)=O)cc1Br`, > 42 µM (inactive).
To `COc1cccc(NC(=O)CN2CCN(c3ccccc3F)CC2)c1` belongs > 42 µM (inactive); to `C=CCN1C(=O)/C(=C\c2ccc(C)cc2)N=C1SCC(=O)NCCC`, > 42 µM (inactive); to `O=S(=O)(NCC1CCCN(Cc2ccccc2O)C1)c1cccc2cccnc12` (configuration not stated), > 42 µM (inactive).
As to `Cn1c(=O)c2c(ncn2CC(=O)OCC(=O)Nc2ccc(Cl)cc2)n(C)c1=O`, the AC50 is > 42 µM (inactive).
For `O=C(COc1ncnc2ccccc12)Nc1ccc(Cl)c(S(=O)(=O)N2CCOCC2)c1`, the AC50 was > 42 µM (inactive).
Next, `COC(=O)/C=C\C(=O)Nc1cccc([N+](=O)[O-])c1`: > 42 µM (inactive).
Next, `N/C(=N\OC(=O)CCC1CCCC1)c1ccc([N+](=O)[O-])cc1`: > 42 µM (inactive); `CCOC(=O)c1cc([N+](=O)[O-])c([N+](=O)[O-])cc1NC(C)=O`: > 42 µM (inactive); `CCCC(O)(c1ccc(Br)cc1)C(CN1CCOCC1)c1ccc(Cl)cc1` (configuration not stated): > 42 µM (inactive).
With `COCCCn1c(=O)c2ccccc2n(Cc2ccccc2C)c1=O`, the AC50 was > 42 µM (inactive).
Take `COc1ccc(NS(=O)(=O)c2ccc(OCC(=O)N3CCOCC3)cc2)cc1Cl`: the AC50 was > 42 µM (inactive).
To `CSc1cccc(NC(=S)N2CCCN(Cc3ccccc3F)C2)c1` belongs > 42 µM (inactive); to `COCCCNC(=O)c1cc(C(=O)c2c(-c3c(Cl)cccc3Cl)noc2C)c[nH]1`, > 42 µM (inactive); to `O=C(c1ccccc1)C(CN1CCCC1)c1ccccc1` (configuration not stated), > 42 µM (inactive).
To `CCC(C)[C@H](NC(=O)Nc1ccc(S(N)(=O)=O)cc1)C(=O)OC` (some centres not stated) belongs > 42 µM (inactive); to `c1ccc(CNc2ncnc3sc4c(c23)CCC4)nc1`, > 42 µM (inactive).
For the molecule `COc1c(C)cc(S(=O)(=O)NC2CC(C)(C)NC(C)(C)C2)c(C)c1C`, the AC50 is > 42 µM (inactive).
As for `CCC(CC)C(=O)Nc1ccc(S(=O)(=O)Nc2nccs2)cc1`, the AC50 was 26 µM.
As for `C/C(CC(=O)NC1CCCCC1)=N\NC(=O)Cc1ccc(-c2ccccc2)cc1`, the AC50 was > 42 µM (inactive).
Consider `COc1cc2cc(C)c3nnc(SCC(=O)Nc4cc(C)on4)n3c2cc1OC`, for which the AC50 was > 42 µM (inactive).
Consider `COc1ccc(OC)c2c(N)c(C#N)c(C(F)(F)C(F)(F)F)nc12`, for which the AC50 is > 42 µM (inactive).
`CCCNc1nc2ccccc2c(=O)[nH]1`: the AC50 is > 42 µM (inactive).
To `CC(CN1CCCCCC1)C(=O)NN` (configuration not stated) belongs > 42 µM (inactive); to `COc1cc2c(cc1OC)C(c1ccccc1[N+](=O)[O-])N(C(C)=O)CC2` (configuration not stated), > 42 µM (inactive); to `COc1ccc(Nc2oc(-c3cccs3)nc2C#N)cc1`, > 42 µM (inactive).
Consider `CCOc1ccc2nc(C(C)O)[nH]c2c1` (configuration not stated), for which the AC50 was > 42 µM (inactive).
`CN(C)C(=O)c1c2c(nc3ccccc13)CCCC2`: the AC50 was > 42 µM (inactive).
On to `COc1ccc(C(=O)CSc2nnc(CNC(=O)c3ccccc3)n2C)cc1`, for which the AC50 was > 42 µM (inactive).
Next, `C/C(=N\N=C(/N)SC1CC(=O)N(c2cccc(Cl)c2)C1=O)c1cccs1` (configuration not stated): > 42 µM (inactive).
Turning to `O=C1CCC(=O)N1CCOP1(=O)COc2ccccc2OC1`, the AC50 was > 42 µM (inactive).
To `CC1=CS(=O)(=O)CC1Sc1ncn[nH]1` (configuration not stated) belongs > 42 µM (inactive).
To `CN(C)C1(c2nnnn2-c2ccc(Cl)cc2)CCCCC1` belongs > 42 µM (inactive); to `COc1ccc(C(=O)N/C(=C\c2cn(C)c3ccccc23)C(=O)OCCN(C)C)cc1`, > 42 µM (inactive).
Take `Clc1ccccc1C(c1ccccc1)(c1ccccc1)n1ccnc1`: the AC50 is > 42 µM (inactive).
As to `Cc1noc(C)c1S(=O)(=O)N1CCCC(C(=O)NCC2CCCO2)C1` (configuration not stated), the AC50 is > 42 µM (inactive).
Regarding `O=S1(=O)NC(c2ccccc2)CC(CC2CCCCC2)O1` (configuration not stated), the AC50 is > 42 µM (inactive).
With `O=C(Cc1ccccc1)N1CCCC1c1ccccc1` (configuration not stated), the AC50 is > 42 µM (inactive).
To `COCCn1c(SCc2ccc(Cl)cc2)nc2c1c(=O)[nH]c(=O)n2C` belongs > 42 µM (inactive).
Consider `CCOC(=O)C1(Cc2cccc(F)c2)CCN(C(=O)c2cnccn2)CC1`, for which the AC50 is > 42 µM (inactive).
Next, `CCCCCCCCCCOC(=O)Cn1c(COc2ccccc2OC)[n+](C)c2ccccc21`: > 42 µM (inactive).
Regarding `COc1ccc(NC2CCCN(C(=O)c3csc(C)n3)C2)cc1` (configuration not stated), the AC50 was > 42 µM (inactive).
With `O=C(O)c1ccc(CNC(=O)c2ccccc2NC(=O)c2ccc([N+](=O)[O-])cc2)cc1`, the AC50 is > 42 µM (inactive).
On to `Cc1ccc(C)c(-n2nnnc2SCC(=O)Nc2c(C)n(C)n(-c3ccccc3)c2=O)c1`, for which the AC50 is > 42 µM (inactive).
In the case of `CCC(c1nnnn1C1CCCC1)N1CCN(c2cccc(OC)c2)CC1` (configuration not stated), the AC50 was > 21 µM (inactive).
To `COC(=O)N/N=C/c1ccc(-c2ccc(Cl)cc2Cl)o1` belongs > 42 µM (inactive).

Broadly, the AC50 is the concentration at which the activity in the assay is half-maximal.
